These results are taken from patent US7674807B2, “Heterocycle-substituted n-phenyl-phthalamide derivatives, related compounds and their use as insecticides” (Bayer CropScience AG, priority 2004, dated 2010).

In series [1] the test system is larva of Spodoptera litura. Put plainly: Test against larva of Spodoptera litura (leaf dip, sweet potato leaves). Format: in vivo. The following applies: 20 ppm concentration of the active component; third instar larvae; counted after 7 days; 25° C. The method in brief: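 Sweet potato leaves were dipped in emulsified compound diluted with water, air-dried, and given to 10 third-instar larvae per dish at 25° C, with fresh leaves added on days 2 and 4. Mortality was counted after 7 days and averaged over 2 dishes.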

Series [2] concerns larva of Cnaphalocrocis medinalis Guenee. Nature of the series: Test against larva of Cnaphalocrocis medinalis Guenee (sprayed paddy rice foliage). Format: in vivo. To be noted: 20 ppm concentration of the active component; second instar larvae; counted after 7 days; 25° C. An outline of the steps:
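Potted rice (Tamanishiki) sprayed with aqueous dilutions of compound at the prescribed concentration; air-dried leaf pieces placed in dishes with five 2nd-instar larvae at 25° C, fresh treated foliage added at days 2 and 4. Mortality counted at day 7, averaged over 2 dishes.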

Series [3] concerns Myzus persicae resistant to organophosphorous agents and carbamates. Put plainly: Test against Myzus persicae resistant to organophosphorous agents and carbamates (spray on eggplant seedlings). It is filed as in vivo. The following applies: 100 ppm concentration of the effective component; 7 days after spraying; green house of 28° C. As for the experimental part: About 30 bred Myzus persicae resistant to organophosphorous agents and carbamates were inoculated per 1 seedling of eggplant planted in a vinyl pot of 6 cm diameter. One day after the inoculation, a sufficient amount of a diluted aqueous solution of a prescribed concentration of an active compound prepared as mentioned above, was sprayed by using a spray gun. After spraying it was placed in a green house of 28° C. and the rate of death was calculated 7 days after the spraying. Test was repeated twice.

For the molecule `CSCC(C)(C)NC(=O)c1c(Br)cccc1C(=O)Nc1ccc(Cn2nc(C(F)(F)F)nc2C(F)(F)F)cc1C` [compound 174], the “controlling effect, rate of death” value in series [1], in series [2] and in series [3] was 100% in each case.

Take `Cc1cc(Cn2nc(C(F)(F)F)nc2C(F)(F)F)ccc1NC(=O)c1cccc(I)c1C(=O)NC(C)CS(C)(=O)=O` (stereo not shown) [compound 218]: the “controlling effect, rate of death” value in series [1], in series [2] and in series [3] was 100% throughout.

Regarding `CSCC(C)NC(=O)c1c(I)cccc1C(=O)Nc1ccc(Cn2nc(C(F)(F)C(F)(F)F)nc2C(F)(F)F)cc1C` (stereo not shown) [compound 226], the “controlling effect, rate of death” value in series [1], in series [2] and in series [3] was 100% each time.

On to `CCSCC(C)NC(=O)c1c(I)cccc1C(=O)Nc1ccc(Cn2nc(C(F)(F)F)nc2C(F)(F)F)cc1C` (stereo not shown) [compound 220], for which the “controlling effect, rate of death” value in series [1], in series [2] and in series [3] was 100% each time.

As to `CSCC(C)(C)NC(=O)c1c(I)cccc1C(=O)Nc1ccc(Cn2nc(C(F)(F)F)nc2C(F)(F)F)cc1C` [compound 211], the “controlling effect, rate of death” value in series [1], in series [2] and in series [3] was 100% in each case.

In the case of `CCSCC(C)NC(=O)c1c(Cl)cccc1C(=O)Nc1ccc(Cn2nc(C(F)(F)F)nc2C(F)(F)F)cc1C` (stereo not shown) [compound 146], the “controlling effect, rate of death” value in series [1], in series [2] and in series [3] was 100% in each case.

On to `CSCC(C)NC(=O)c1c(Cl)cccc1C(=O)Nc1ccc(Cn2nc(C(F)(F)F)nc2C(F)(F)F)cc1C` (stereo not shown) [compound 140], for which the “controlling effect, rate of death” value in series [1], in series [2] and in series [3] was 100% throughout.

As to `CSCC(C)NC(=O)c1c(Cl)cccc1C(=O)Nc1ccc(Cn2nc(C(F)(F)F)nc2C(F)(F)F)cc1C` (stereo not shown) [compound 141], the “controlling effect, rate of death” value in series [1], in series [2] and in series [3] was 100% in each case.

Consider `Cc1cc(C(C)n2nc(C(F)(F)C(F)(F)F)nc2C(F)(F)F)ccc1NC(=O)c1cccc(Cl)c1C(=O)N[C@@H](C)C[S+](C)[O-]` (stereo partly shown) [compound 579], for which the “controlling effect, rate of death” value in series [1], in series [2] and in series [3] was 100% throughout.

For the molecule `Cc1cc(Cn2nc(C(F)(F)F)nc2C(F)(F)F)ccc1NC(=O)c1cccc(I)c1C(=O)NC(C)(C)CS(C)(=O)=O` [compound 213], the “controlling effect, rate of death” value in series [1], in series [2] and in series [3] was 100% each time.

Regarding `Cc1cc(Cn2nc(C(F)(F)F)nc2C(F)(F)F)ccc1NC(=O)c1cccc(Cl)c1C(=O)NC(C)CS(C)(=O)=O` (stereo not shown) [compound 144], the “controlling effect, rate of death” value in series [1], in series [2] and in series [3] was 100% in each case.

As to `CC[S+]([O-])CC(C)NC(=O)c1c(Cl)cccc1C(=O)Nc1ccc(Cn2nc(C(F)(F)F)nc2C(F)(F)F)cc1C` (stereo not shown) [compound 147], the “controlling effect, rate of death” value in series [1], in series [2] and in series [3] was 100% each time.

`CCS(=O)(=O)CC(C)NC(=O)c1c(Cl)cccc1C(=O)Nc1ccc(Cn2nc(C(F)(F)F)nc2C(F)(F)F)cc1C` (stereo not shown) [compound 148]: the “controlling effect, rate of death” value in series [1], in series [2] and in series [3] was 100% in each case.

As for `Cc1cc(C(C)n2nc(C(F)(F)F)nc2C(F)(F)F)ccc1NC(=O)c1cccc(Cl)c1C(=O)N[C@@H](C)CS(C)(=O)=O` (stereo partly shown) [compound 570], the “controlling effect, rate of death” value in series [1], in series [2] and in series [3] was 100% in each case.

In the case of `Cc1cc(Cn2cc(C(F)(F)C(F)(F)F)c(C(F)(F)C(F)(F)C(F)(F)F)n2)ccc1NC(=O)c1cccc(I)c1C(=O)N[C@@H](C)C[S+](C)[O-]` (stereo partly shown) [compound 920], the “controlling effect, rate of death” value in series [1], in series [2] and in series [3] was 100% each time.

On to `Cc1cc(Cn2nc(C(F)(F)F)nc2C(F)(F)F)ccc1NC(=O)c1cccc(Br)c1C(=O)NC(C)CS(C)(=O)=O` (stereo not shown) [compound 181], for which the “controlling effect, rate of death” value in series [1], in series [2] and in series [3] was 100% throughout.

Take `CSCC(C)(C)NC(=O)c1c(I)cccc1C(=O)Nc1ccc(C(C)n2ccc(C(F)(F)F)n2)cc1C` (stereo not shown) [compound 558, N^2-(1,1-dimethyl-2-methylsulfanyl-ethyl)-3-iodo-N^1-{2-methyl-4-[1-(3-trifluoromethyl-1H-pyrazol-1-yl)-ethyl]-phenyl}-phthalamide]: the melting point lay within 79 to 86 °C.

Turning to `Cc1cc(Cn2nc(C(F)(F)F)nc2C(F)(F)F)ccc1NC(=O)c1cccc(Br)c1C(=O)NC(C)C[S+](C)[O-]` (stereo not shown) [compound 180], the “controlling effect, rate of death” value in series [1], in series [2] and in series [3] was 100% in each case.

As for `CSCC(C)NC(=O)c1c(I)cccc1C(=O)Nc1ccc(Cn2nc(C(F)(F)F)nc2C(F)(F)F)cc1C` (stereo not shown) [compound 215], the “controlling effect, rate of death” value in series [1], in series [2] and in series [3] was 100% in each case.

`Cc1cc(C(C)n2nc(C(F)(F)F)nc2C(F)(F)F)ccc1NC(=O)c1cccc(I)c1C(=O)N[C@@H](C)C[S+](C)[O-]` (stereo partly shown) [compound 572]: the “controlling effect, rate of death” value in series [1], in series [2] and in series [3] was 100% in each case.
